# Results: patent publication US11572399B2, “Long-acting GIP peptide analogues” (University of Copenhagen, priority 2017, dated 2023)
# Where two headings read alike, the source gives them in different places. Peptide text beside a SMILES is read from it. * marks the point of attachment. C16 diacid = O=C(O)CCCCCCCCCCCCCCC(=O)*; Stearoyl = CCCCCCCCCCCCCCCCCC(=O)*; Palmitoyl = CCCCCCCCCCCCCCCC(=O)*
# How the values were obtained:
# [1] = biological target: T1, human GIP receptor (Homo sapiens, UniProt P48546); assay: cAMP accumulation assay, antagonism of a GIP-mediated cAMP response (50-80% of max); format: cell-based
# T1 construct: host or cells: COS-7, transient transfection (calcium phosphate), cDNA in pCMV-Script
# T1 sequence (P48546 22-466): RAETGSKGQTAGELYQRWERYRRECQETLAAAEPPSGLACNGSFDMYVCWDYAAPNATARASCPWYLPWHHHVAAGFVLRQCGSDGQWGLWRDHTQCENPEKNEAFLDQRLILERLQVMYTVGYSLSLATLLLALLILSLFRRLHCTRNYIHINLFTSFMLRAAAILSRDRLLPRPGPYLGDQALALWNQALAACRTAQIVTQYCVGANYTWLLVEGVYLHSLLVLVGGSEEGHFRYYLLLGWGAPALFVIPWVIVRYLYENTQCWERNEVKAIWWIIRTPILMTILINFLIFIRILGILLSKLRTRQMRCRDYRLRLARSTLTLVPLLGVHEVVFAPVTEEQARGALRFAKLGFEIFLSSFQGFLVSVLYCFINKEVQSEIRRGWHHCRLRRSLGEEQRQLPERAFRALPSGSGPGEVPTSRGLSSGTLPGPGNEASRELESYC
# Method: The day after, the cells were washed twice with Hepes buffered saline (HBS) buffer and incubated with HBS and 1 mM 3-isobutyl-1-methylxanthine (IBMX) for 30 min at 37° C. […] The HitHunter™ cAMP XS assay (DiscoveRx) was carried out according to the manufacturer's instructions.
# [2] = biological target: T1, human GIP receptor; assay: cAMP accumulation assay, agonism (ligand alone); format: cell-based; details: Table 1; for Emax: COS-7, intrinsic cAMP activity
# [3] = biological target: T1, human GIP receptor; assay: 125I-human GIP competition binding assay, in the presence and absence of 2% HSA; details: fold change +HSA/−HSA;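 also: nonspecific binding taken as radioligand bound to untransfected cells, IC50 obtained from nonlinear regression fits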
# [4] = transiently transfected COS-7 cells, Table 1 and text, read-out: cAMP antagonism nM (IC50, antagonistic potency)
# [5] = COS-7 cells, read-out: cAMP agonism nM (EC50)
Compound,"IC50 [1, 4]",Emax ([2]; COS-7 cells),other results
"CCCCCCCCCCCC(=O)NCCCC[C@H](NC(=O)[C@H](CCC(N)=O)NC(=O)[C@H](C)NC(=O)[C@H](CC(C)C)NC(=O)[C@H](CC(C)C)NC(=O)[C@H](Cc1c[nH]c2ccccc12)NC(=O)[C@H](CC(N)=O)NC(=O)[C@@H](NC(=O)[C@H](Cc1ccccc1)NC(=O)[C@H](CC(=O)O)NC(=O)[C@H](CCC(N)=O)NC(=O)[C@H](CCC(N)=O)NC(=O)[C@H](Cc1c[nH]cn1)NC(=O)[C@@H](NC(=O)[C@H](CCCCN)NC(=O)[C@H](CC(=O)O)NC(=O)[C@H](CCSC)NC(=O)[C@H](C)NC(=O)[C@@H](NC(=O)[C@H](CO)NC(=O)[C@H](Cc1ccc(O)cc1)NC(=O)[C@H](CC(=O)O)NC(=O)[C@H](CO)NC(=O)[C@@H](NC(=O)[C@H](Cc1ccccc1)NC(=O)[C@@H](NC(=O)CNC(=O)[C@@H](N)CCC(=O)O)[C@@H](C)O)[C@@H](C)CC)[C@@H](C)CC)[C@@H](C)CC)C(C)C)C(N)=O [AT103, [hGIP(3-30)NH2—C12/30]]",121 nM,7%,–
"CCCCCCCCCCCCCCCC(=O)NCCCC[C@H](NC(=O)[C@H](CC(=O)O)NC(=O)[C@H](CCSC)NC(=O)[C@H](C)NC(=O)[C@@H](NC(=O)[C@H](CO)NC(=O)[C@H](Cc1ccc(O)cc1)NC(=O)[C@H](CC(=O)O)NC(=O)[C@H](CO)NC(=O)[C@@H](NC(=O)[C@H](Cc1ccccc1)NC(=O)[C@@H](N)[C@@H](C)O)[C@@H](C)CC)[C@@H](C)CC)C(=O)N[C@H](C(=O)N[C@@H](Cc1c[nH]cn1)C(=O)N[C@@H](CCC(N)=O)C(=O)N[C@@H](CCC(N)=O)C(=O)N[C@@H](CC(=O)O)C(=O)N[C@@H](Cc1ccccc1)C(=O)N[C@H](C(=O)N[C@@H](CC(N)=O)C(=O)N[C@@H](Cc1c[nH]c2ccccc12)C(=O)N[C@@H](CC(C)C)C(=O)N[C@@H](CC(C)C)C(=O)N[C@@H](C)C(=O)N[C@@H](CCC(N)=O)C(=O)N[C@@H](CCCCN)C(N)=O)C(C)C)[C@@H](C)CC [AT125, [hGIP(5-30)NH2—C16/16]]",131 nM,0%,–
"CCCCCCCCCCCCCCCCCC(=O)NCCCC[C@H](NC(=O)[C@H](CC(=O)O)NC(=O)[C@H](CCSC)NC(=O)[C@H](C)NC(=O)[C@@H](NC(=O)[C@H](CO)NC(=O)[C@H](Cc1ccc(O)cc1)NC(=O)[C@H](CC(=O)O)NC(=O)[C@H](CO)NC(=O)[C@@H](NC(=O)[C@H](Cc1ccccc1)NC(=O)[C@@H](N)[C@@H](C)O)[C@@H](C)CC)[C@@H](C)CC)C(=O)N[C@H](C(=O)N[C@@H](Cc1c[nH]cn1)C(=O)N[C@@H](CCC(N)=O)C(=O)N[C@@H](CCC(N)=O)C(=O)N[C@@H](CC(=O)O)C(=O)N[C@@H](Cc1ccccc1)C(=O)N[C@H](C(=O)N[C@@H](CC(N)=O)C(=O)N[C@@H](Cc1c[nH]c2ccccc12)C(=O)N[C@@H](CC(C)C)C(=O)N[C@@H](CC(C)C)C(=O)N[C@@H](C)C(=O)N[C@@H](CCC(N)=O)C(=O)N[C@@H](CCCCN)C(N)=O)C(C)C)[C@@H](C)CC [AT128, [hGIP(5-30)NH2—C18/16]]",114 nM,25%,–
"CCCCCCCCCCCCCCCC(=O)NCCCC[C@H](NC(=O)[C@@H](NC(=O)[C@H](CCCCN)NC(=O)[C@H](CC(=O)O)NC(=O)[C@H](CCSC)NC(=O)[C@H](C)NC(=O)[C@@H](NC(=O)[C@H](CO)NC(=O)[C@H](Cc1ccc(O)cc1)NC(=O)[C@H](CC(=O)O)NC(=O)[C@H](CO)NC(=O)[C@@H](NC(=O)[C@H](Cc1ccccc1)NC(=O)[C@@H](N)[C@@H](C)O)[C@@H](C)CC)[C@@H](C)CC)[C@@H](C)CC)C(=O)N[C@@H](CCC(N)=O)C(=O)N[C@@H](CCC(N)=O)C(=O)N[C@@H](CC(=O)O)C(=O)N[C@@H](Cc1ccccc1)C(=O)N[C@H](C(=O)N[C@@H](CC(N)=O)C(=O)N[C@@H](Cc1c[nH]c2ccccc12)C(=O)N[C@@H](CC(C)C)C(=O)N[C@@H](CC(C)C)C(=O)N[C@@H](C)C(=O)N[C@@H](CCC(N)=O)C(=O)N[C@@H](CCCCN)C(N)=O)C(C)C [AT145, [hGIP(5-30)NH2[H18K]-C16/18]] (H-TFISDYSIAMDKIK(Palmitoyl)QQDFVNWLLAQK-NH2; N-terminus assumed)",66 nM,16%,"EC50 [2, 5]: 33 nM"
"CC[C@H](C)[C@H](NC(=O)[C@H](CO)NC(=O)[C@H](Cc1ccc(O)cc1)NC(=O)[C@H](CC(=O)O)NC(=O)[C@H](CO)NC(=O)[C@@H](NC(=O)[C@H](Cc1ccccc1)NC(=O)[C@@H](N)[C@@H](C)O)[C@@H](C)CC)C(=O)N[C@@H](C)C(=O)N[C@@H](CCSC)C(=O)N[C@@H](CC(=O)O)C(=O)N[C@@H](CCCNC(=N)N)C(=O)N[C@H](C(=O)N[C@@H](CCCCNC(=O)CCCCCCCCCCCCCCC(=O)O)C(=O)N[C@@H](CCC(N)=O)C(=O)N[C@@H](CCC(N)=O)C(=O)N[C@@H](CC(=O)O)C(=O)N[C@@H](Cc1ccccc1)C(=O)N[C@H](C(=O)N[C@@H](CC(N)=O)C(=O)N[C@@H](Cc1c[nH]c2ccccc12)C(=O)N[C@@H](CC(C)C)C(=O)N[C@@H](CC(C)C)C(=O)N[C@@H](C)C(=O)N[C@@H](CCC(N)=O)C(=O)N[C@@H](CCCNC(=N)N)C(N)=O)C(C)C)[C@@H](C)CC [AT157, [hGIP(5-30)NH2[K16R; H18K; K30R]-C16diacid/18]] (H-TFISDYSIAMDRIK(C16 diacid)QQDFVNWLLAQR-NH2; N-terminus assumed)",7 nM,12%,"IC50 ([1]; given as log IC50 (negative sign), transiently transfected COS-7 cells, Table 1, read-out: cAMP antagonism log (converted)): 7.94 nM; EC50 ([2]; given as log EC50 (negative sign), read-out: cAMP agonism EC50 (log) (converted)): 10 nM"
"CCCCCCCCCCCCCCCCCC(=O)NCCCC[C@H](NC(=O)[C@@H](NC(=O)[C@H](CCCCN)NC(=O)[C@H](CC(=O)O)NC(=O)[C@H](CCSC)NC(=O)[C@H](C)NC(=O)[C@@H](NC(=O)[C@H](CO)NC(=O)[C@H](Cc1ccc(O)cc1)NC(=O)[C@H](CC(=O)O)NC(=O)[C@H](CO)NC(=O)[C@@H](NC(=O)[C@H](Cc1ccccc1)NC(=O)[C@@H](N)[C@@H](C)O)[C@@H](C)CC)[C@@H](C)CC)[C@@H](C)CC)C(=O)N[C@@H](CCC(N)=O)C(=O)N[C@@H](CCC(N)=O)C(=O)N[C@@H](CC(=O)O)C(=O)N[C@@H](Cc1ccccc1)C(=O)N[C@H](C(=O)N[C@@H](CC(N)=O)C(=O)N[C@@H](Cc1c[nH]c2ccccc12)C(=O)N[C@@H](CC(C)C)C(=O)N[C@@H](CC(C)C)C(=O)N[C@@H](C)C(=O)N[C@@H](CCC(N)=O)C(=O)N[C@@H](CCCCN)C(N)=O)C(C)C [AT161, [hGIP(5-30)NH2[H18K]-C18/18]] (H-TFISDYSIAMDKIK(Stearoyl)QQDFVNWLLAQK-NH2; N-terminus assumed)",252 nM,7%,–
"CC[C@H](C)[C@H](NC(=O)[C@H](CO)NC(=O)[C@H](Cc1ccc(O)cc1)NC(=O)[C@H](CC(=O)O)NC(=O)[C@H](CO)NC(=O)[C@@H](NC(=O)[C@H](Cc1ccccc1)NC(=O)[C@H](CCCCNC(=O)CCCCCCCCCCCCCCC(=O)O)NC(=O)CNC(=O)[C@@H](N)CCC(=O)O)[C@@H](C)CC)C(=O)N[C@@H](C)C(=O)N[C@@H](CCSC)C(=O)N[C@@H](CC(=O)O)C(=O)N[C@@H](CCCCN)C(=O)N[C@H](C(=O)N[C@@H](Cc1c[nH]cn1)C(=O)N[C@@H](CCC(N)=O)C(=O)N[C@@H](CCC(N)=O)C(=O)N[C@@H](CC(=O)O)C(=O)N[C@@H](Cc1ccccc1)C(=O)N[C@H](C(=O)N[C@@H](CC(N)=O)C(=O)N[C@@H](Cc1c[nH]c2ccccc12)C(=O)N[C@@H](CC(C)C)C(=O)N[C@@H](CC(C)C)C(=O)N[C@@H](C)C(=O)N[C@@H](CCC(N)=O)C(=O)N[C@@H](CCCCN)C(N)=O)C(C)C)[C@@H](C)CC [AT296, [hGIP(3-30)NH2[T5K]-C16diacid/5]]",14 nM,6.7%,"EC50 [2, 5]: 2.6 nM"
"CC[C@H](C)[C@H](NC(=O)[C@H](CO)NC(=O)[C@H](Cc1ccc(O)cc1)NC(=O)[C@H](CC(=O)O)NC(=O)[C@H](CO)NC(=O)[C@@H](NC(=O)[C@H](Cc1ccccc1)NC(=O)[C@@H](N)[C@@H](C)O)[C@@H](C)CC)C(=O)N[C@@H](C)C(=O)N[C@@H](CCSC)C(=O)N[C@@H](CC(=O)O)C(=O)N[C@@H](CCCCN)C(=O)N[C@H](C(=O)N[C@@H](Cc1c[nH]cn1)C(=O)N[C@@H](CCC(N)=O)C(=O)N[C@@H](CCC(N)=O)C(=O)N[C@@H](CC(=O)O)C(=O)N[C@@H](Cc1ccccc1)C(=O)N[C@H](C(=O)N[C@@H](CC(N)=O)C(=O)N[C@@H](Cc1c[nH]c2ccccc12)C(=O)N[C@@H](CC(C)C)C(=O)N[C@@H](CC(C)C)C(=O)N[C@@H](C)C(=O)N[C@@H](CCC(N)=O)C(=O)N[C@@H](CCCCN)C(N)=O)C(C)C)[C@@H](C)CC [hGIP(5-30)NH2, reference compound]",–,–,"IC50 ([1]; cAMP accumulation IC50 (nM), antagonism of GIP-mediated cAMP response, COS-7 cells): 27.5 nM; IC50 ([1]; cAMP antagonism nM (IC50, antagonistic potency), transiently transfected COS-7 cells, Table 1 and text): 28 nM; Binding (+/−HSA) Fold [3]: 1.0"
